Laboratory results reported in publication PMC8881573, “Inhibition of SRP-dependent protein secretion by the bacterial alarmone (p)ppGpp” (Nature Communications, 2022).

What was measured:
[1] = target: T1, (Bs)Ffh-NG (Bacillus subtilis, UniProt P37105); test: Microscale thermophoresis (MST) ligand binding; parameters: species or system B. subtilis; conditions: NG domain labeled with NT 647, 21 °C
T1 construct: purified NG domains of (Ec)Ffh, (Ec)FtsY and (Bs)Ffh; His6 (N); made in house; host or cells: E. coli Rosetta pLysS
T1 sequence (P37105 1-297 limits assumed): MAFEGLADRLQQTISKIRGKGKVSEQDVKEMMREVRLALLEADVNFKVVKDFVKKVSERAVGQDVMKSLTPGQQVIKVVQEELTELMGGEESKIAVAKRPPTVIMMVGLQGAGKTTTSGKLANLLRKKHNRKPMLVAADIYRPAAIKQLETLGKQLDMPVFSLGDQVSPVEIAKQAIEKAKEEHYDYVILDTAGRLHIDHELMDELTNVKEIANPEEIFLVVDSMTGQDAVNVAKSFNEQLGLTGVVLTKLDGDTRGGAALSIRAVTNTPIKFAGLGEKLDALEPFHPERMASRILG
Protocol: (§1) Ligand binding assays with purified NG domains of (Ec)Ffh, (Ec)FtsY and (Bs)Ffh proteins were carried out by microscale thermophoresis (MST)[80]. All experiments were performed on a Monolith NT.115 (NanoTemper Technologies GmbH, Munich, Germany; software: NanoTemper Control Version 2.0.2.29) at 21 °C (red LED power was set to 50–100% and infrared laser power to 75%). After labeling of primary amines within (Ec)Ffh, (Ec)FtsY, and (Bs)Ffh (50 µM each) with the dye NT 647 (according to the manufacturers protocol), the proteins were re-buffered in SEC buffer containing 20 mM HEPES-Na, 20 mM KCl, 20 mM MgCl2, 200 mM NaCl (final pH 7.5), 10 mg ml^−1 BSA and 0.007% Tween. Two-hundred nanomolar of (Ec)Ffh, (Ec)FtsY, and (Bs)Ffh were titrated with GDP, GTP, ppGpp, and pppGpp starting from a concentration ranging between 0.75 and 3 mM, respectively. At least six independent MST experiments per ligand and protein were recorded at 680 nm and analyzed using NanoTemper Analysis version 1.5.37 and 1.2.009, and Origin8G software suits.

[2] = target: T2, SRP/FtsY (Escherichia coli, UniProt P0AGD7+P10121); test: YohP insertion into SecYEG-proteoliposomes with purified SRP/FtsY, proteinase K resistance; type: biochemical, E. coli; conditions: added together with SRP/FtsY (20 ng µL−1 each), 10 µM GTP
T2 construct: (Ec)Ffh (full-length) was concentrated on a 10 kDa centrifugal filter; (Ec)FtsY (full-length) was re-buffered in HT buffer; His-tag; made in house; host or cells: E. coli
Protocol: For protein transport assay, YohP cloned in pET19b was synthesized in vitro using a purified transcription/translation system composed of cytosolic translation factors (CTF) and high salt-washed ribosomes[35],[36]. The ^35S-Methionine/^35S-Cysteine labeling mix was obtained from Perkin Elmer (Wiesbaden, Germany). INVs of E. coli cells were prepared by sucrose gradient centrifugation of cell extracts as described[76] and resuspended in INV buffer (50 mM triethanolamine acetate, pH 7.5, 200 mM sucrose, 1 mM DTT). […] The supernatant containing YohP was then incubated with INV, liposomes or SecYEG-proteoliposomes for 10 min at 37 °C in the presence of 10 µM GTP. […] Next, the samples were denatured at 56 °C for 10 min in 35 μL of TCA loading dye (prepared by mixing one part of solution III (1 M dithiothreitol) with 4 parts of solution II (6.33% (w/v) SDS, 0.083 M Tris, 30% (v/v) glycerol and 0.053% (w/v) bromophenol blue) and 5 parts of solution I (0.2 M Tris, 0.02 M EDTA pH 8)) and analyzed after separation on a modified SDS-PAGE[35] by phosphor imaging. For quantification of YohP insertion, autoradiography samples were analyzed by using the ImageQuant (GE Healthcare) software. […] Mean values and SEM values were determined by using either Excel (Microsoft Corp.) or GraphPad Prism (GraphPad Prism Corp. San Diego). […]

[3] = target: T3, (Ec)Ffh-NG (Escherichia coli, UniProt P0AGD7); test: Microscale thermophoresis (MST) ligand binding; parameters: species or system E. coli; conditions: NG domain labeled with NT 647, 21 °C
T3 construct: purified NG domains of (Ec)Ffh, (Ec)FtsY and (Bs)Ffh; His6 (C); made in house; host or cells: E. coli BL21 (DE3)
Protocol: as §1

[4] = target: T4, (Ec)FtsY-NG (Escherichia coli, UniProt P10121); test: Microscale thermophoresis (MST) ligand binding; parameters: species or system E. coli; conditions: NG domain labeled with NT 647, 21 °C; read-out: (Ec)FtsY KD MST
T4 construct: purified NG domains of (Ec)Ffh, (Ec)FtsY and (Bs)Ffh; His6 (C); made in house; host or cells: E. coli BL21 (DE3)
Protocol: as §1

[5] = target: GTPase RbgA; parameters: method as in PMID 30366986; conditions: read-out: inhibitor constant Ki; cited from earlier work

T4 sequence (P10121 197-497): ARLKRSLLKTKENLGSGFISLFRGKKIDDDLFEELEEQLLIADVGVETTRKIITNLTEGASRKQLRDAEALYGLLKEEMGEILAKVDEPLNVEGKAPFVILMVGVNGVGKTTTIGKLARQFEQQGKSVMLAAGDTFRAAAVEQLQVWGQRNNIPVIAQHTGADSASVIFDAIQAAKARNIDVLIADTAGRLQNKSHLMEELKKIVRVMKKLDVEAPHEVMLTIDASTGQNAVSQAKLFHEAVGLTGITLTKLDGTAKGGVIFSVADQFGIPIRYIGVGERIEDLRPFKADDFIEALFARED
T3 sequence (P0AGD7 1-296): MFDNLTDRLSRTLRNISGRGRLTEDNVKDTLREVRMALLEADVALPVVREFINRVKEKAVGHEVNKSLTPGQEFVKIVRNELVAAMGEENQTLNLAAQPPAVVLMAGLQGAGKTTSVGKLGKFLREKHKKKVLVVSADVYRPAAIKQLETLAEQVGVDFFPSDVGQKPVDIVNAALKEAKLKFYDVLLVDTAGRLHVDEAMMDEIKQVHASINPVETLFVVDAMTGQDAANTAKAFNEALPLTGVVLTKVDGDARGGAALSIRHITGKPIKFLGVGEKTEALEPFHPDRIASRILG
T2 sequence (P0AGD7 whole entry): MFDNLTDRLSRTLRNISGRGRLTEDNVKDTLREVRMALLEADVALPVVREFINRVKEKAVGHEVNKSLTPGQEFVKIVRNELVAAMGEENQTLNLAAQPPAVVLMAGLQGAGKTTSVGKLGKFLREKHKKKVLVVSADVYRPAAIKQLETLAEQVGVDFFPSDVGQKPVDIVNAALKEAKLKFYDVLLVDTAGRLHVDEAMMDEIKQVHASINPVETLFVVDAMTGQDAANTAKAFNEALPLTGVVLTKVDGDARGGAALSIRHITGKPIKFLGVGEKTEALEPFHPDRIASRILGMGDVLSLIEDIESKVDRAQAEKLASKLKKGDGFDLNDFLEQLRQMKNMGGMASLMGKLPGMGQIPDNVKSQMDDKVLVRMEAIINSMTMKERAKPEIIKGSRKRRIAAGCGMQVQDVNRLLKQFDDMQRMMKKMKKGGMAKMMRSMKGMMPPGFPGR
T2 sequence (P10121 whole entry): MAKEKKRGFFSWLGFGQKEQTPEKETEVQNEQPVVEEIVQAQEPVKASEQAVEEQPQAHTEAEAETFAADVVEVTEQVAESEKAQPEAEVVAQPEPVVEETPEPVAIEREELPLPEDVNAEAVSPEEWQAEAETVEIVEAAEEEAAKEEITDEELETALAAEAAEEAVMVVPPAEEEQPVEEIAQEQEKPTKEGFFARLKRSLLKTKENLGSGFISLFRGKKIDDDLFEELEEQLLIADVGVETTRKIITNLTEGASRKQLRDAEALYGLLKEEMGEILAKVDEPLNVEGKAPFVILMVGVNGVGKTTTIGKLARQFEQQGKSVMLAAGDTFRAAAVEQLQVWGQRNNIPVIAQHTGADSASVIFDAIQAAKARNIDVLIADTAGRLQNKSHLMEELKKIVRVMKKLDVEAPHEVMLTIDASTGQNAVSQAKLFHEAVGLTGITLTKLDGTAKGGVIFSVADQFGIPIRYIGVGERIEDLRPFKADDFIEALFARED

| Compound | Kd [1] [µM] | YohP insertion into SecYEG proteoliposomes [2] | Kd [3] [µM] | Kd [4] [µM] | Ki [5] [µM] |
| --- | --- | --- | --- | --- | --- |
| Nc1nc2c(ncn2[C@@H]2O[C@H](COP(=O)(O)OP(=O)(O)O)[C@@H](OP(=O)(O)OP(=O)(O)O)[C@H]2O)c(=O)[nH]1 [ppGpp] | 32.2 ± 7.5 | reduced YohP insertion into SecYEG proteoliposomes drastically | 13.5 | 30 | 300 |
| Nc1nc2c(ncn2[C@@H]2O[C@H](COP(=O)(O)OP(=O)(O)OP(=O)(O)O)[C@@H](OP(=O)(O)OP(=O)(O)O)[C@H]2O)c(=O)[nH]1 [pppGpp] | 27.2 ± 9.8 | reduced YohP insertion into SecYEG proteoliposomes drastically | 68.3 | 66.6 | 500 |
